Measured values reported in patent US8993527B2, “Methods, compositions, and formulations for preventing or reducing adverse effects in a patient” (Pericor Therapeutics, Inc., priority 2005, dated 2015).
Where two headings read alike, the source gives them in different places.

Test system: patients undergoing CABG surgery
Type: in vivo
Method: All patients from all clinical trials were included: a total of 4043 patients undergoing CABG surgery, evaluable for efficacy, and randomized to receive either placebo (n=2031) or acadesine (0.1 mg-kg^−1-min^−1; n=2012) by intravenous infusion for 7 continuous hours and via the cardioplegia solution.
Individual patient data were collected prospectively using standardized forms and methods and double-data entry. A general parametric approach and analysis-by-patient meta-analysis were used, including both fixed effects and random effects models. Inclusion and exclusion criteria, general methodology, and outcome assessment techniques were similar for all trials.
Meta-analysis included all patients undergoing CABG surgery in the United States, Canada, and Europe who had received acadesine at a dose of 0.1 mg-kg^1min^1. No patients satisfying these criteria were excluded. All 5 studies were randomized, placebo controlled, double blinded, and performed with approval from the 81 participating McSPI institutions and with patient informed consent. Inclusion and exclusion criteria, general methods, and outcome assessment techniques were similar for all trials; with several exceptions (Table 1). […] For all patients, blinded study drug (acadesine or placebo) was administered intravenously, starting approximately 15 minutes before induction of anesthesia and continuing for a total of 7 hours to include the intraoperative (prebypass and postbypass) and immunediate postoperative (into the intensive care unit) periods.
Prior to surgery, investigators ascertained cardiac history and recorded cardiac catheterization information. The use of agents potentially affecting endogenous adenosine concentration (which could complicate the analysis of efficacy) was restricted, including dipyridamole, theophylline, adenosine, and pentoxifylline. All chronic cardiovascular medications, including nitrates, β-blockers, and calcium channel blockers, were continued until the time of surgery. During surgery, but prior to bypass, the usual monitors wore applied, anesthetic techniques were standardized, and hemodynamic variables (blood pressure, heart rate) were to be maintained within specific boundaries for trials 1013, 1016, and 1023; for trials […], guidelines for anesthetic use and hemodynamic control were recommended. For all studies, prophylactic use of cardiovascular agents having potential anti-ischemic properties (nitrates, calcium channel Mockers) was specifically excluded to avoid confounding data interpretation. During cardiopulmonary bypass, neither the surgical technique nor bypass procedures (including cardioplegia administration) were controlled for the phase 3 trials, and bypass typically was conducted using a membrane oxygenator and arterial filter with hemodilution and moderate systemic hypothermia. Following bypass, the use of inotropic and vasodilating agents (excluding the prophylactic use of anti-ischemic medications) and treatment of clinically detected ischemia were not controlled; all medications administered were recorded.
For all studies, the primary outcome, MI, and other secondary outcomes were ascertained and validated by IREF Coordinating Center investigators who were blinded to patient identity and group assignment. Secondary outcomes included cardiac death, stroke, life-threatening dysrhythmia, and severe heart failure (Table 1). For MI, repeated electrocardiograms (ECGs) were coded centrally by core investigators using Minnesota Code criteria. Creatine kinase-MB (CK-M13) concentrations were sampled approximately 18 times during the first 4 postoperative days and, for phase 3 studies, were analyzed centrally using an immunoenzymetric assay (Hybritech Tandem-E CK-MB II, SmithKline Beecham, Van Nuys, Calif.). The presence of infarction at autopsy was based on pathologic data from the respective institution and confirmed centrally by the Endpoint Committee.

[1] = death following myocardial infarction, acadesine vs placebo (n = 98)
[2] = patients with myocardial infarction, Acadesine (n = 71)
[3] = patients with myocardial infarction, Acadesine (n = 71), number of patients

NC(=O)c1ncn([C@@H]2O[C@H](CO)[C@@H](O)[C@H]2O)c1N [1 (1-110), 5-amino-1-β-D-ribofuranosyl-imidazole-4-carboxamide]
decrease of the incidence of perioperative myocardial infarction (0.1 mg/kg/min for 7 hours vs placebo): 27% | cardiac death following MI through postoperative day 4 (acadesine group (1 death/71 MIs), placebo 13.3%): 1.4% | incidence of CVA (acadesine group (32/2012), placebo 2.3%): 1.6% | fewer patients with an adverse outcome (acadesine group vs placebo, combined outcomes): 41 | incidence of infarction (acadesine group, placebo 4.9%): 3.6% | cardiac deaths through postoperative day 4, number (acadesine group, placebo 26): 13 | Cardiac death at 28 days, patients (acadesine group, placebo 34): 20 | patients with myocardial infarction, number (acadesine group, placebo 98): 71 | autopsy-defined MI (acadesine patients, placebo 16/19): 2/11 | decrease of cardiac death following MI through postoperative day 4 (acadesine vs placebo): 89% | decrease of the incidence of cardiac death through postoperative day 4 (acadesine vs placebo): 50% | decrease of the incidence of combined outcome (MI, stroke, or cardiac death) (acadesine vs placebo): 26% | noncardiac death (acadesine vs placebo): no effect | reduction of the use of ventricular-assistance devices for severe postoperative heart failure (acadesine vs placebo): approximately one third | post-MI deaths (acadesine-treated patients, placebo 21/98): 4/71 | cardiac death in the first 4 days in patients without MI or not evaluable for MI (acadesine-treated, placebo 0.7%): 0.6% | Cardiac death by postoperative day 4, Reduction [1]: 89% | Cardiac death by postoperative day 28, Reduction [1]: 79% | Death by postoperative day 4, Reduction [1]: 79% | Death by postoperative day 28, Reduction [1]: 74% | cardiac failure, immediately life-threatening or prolonging hospitalization (human, in vivo, 7 h): 2.1% | incidence of serious adverse events (human, in vivo, 7 h): 9.1% | use of an intraaortic balloon pump (in vivo): 2.4% | Cardiac death by postoperative day 4, (%) [2]: 1 (1) % | Cardiac death by postoperative day 28, (%) [2]: 4% | Death by postoperative day 4, (%) [2]: 3% | Death by postoperative day 28, (%) [2]: 6% | Cardiac death by postoperative day 4, No. [3]: 1 (1) | Cardiac death by postoperative day 28, No. [3]: 3 | Death by postoperative day 4, No. [3]: 2 | Death by postoperative day 28, No. [3]: 4 | reduction in post-MI death (secondary analysis, acadesine vs placebo): 74% | effect size for MI (trial 1016 (n=414)): 73% | rate of stroke (trial 1016, placebo 4.2%): 0.5% | combined adverse cardiovascular outcome (MI, CVA or cardiac death) (trial 1016, placebo […]): 1.9% | infarction rate (Q wave and CK-MB or autopsy) (trial 1016, placebo […]): 1.5% | effect size for MI (trial 1017 (n=821)): 23% | effect size for MI (trial 1024 (n=2698)): 22%
